We go through two sequences from publication PMC4528135, “Kinetic Investigations of the Role of Factor Inhibiting Hypoxia-inducible Factor (FIH) as an Oxygen Sensor” (The Journal of Biological Chemistry, 2015).

Assay [1] concerns the target T1, PHD2 (catalytic domain, residues 181–426) (Homo sapiens, UniProt Q9GZT9).
T1 construct: The catalytic domain of PHD2 (residues 181–426) was purified as described; made in house
Nature of the assay: Steady-state kinetics of PHD2-catalyzed HIF-α CODD/NODD hydroxylation (MALDI-TOF-MS). Particulars: 4 mM L-ascorbate, 50 mM HEPES pH 7.5, 37 °C; for kcat^app: PHD2, 4 μM PHD2, 50 μM Fe(II); for Km: 50 μM Fe(II), triplicate assays. It counts as biochemical. How it is done:
Enzymatic assays were conducted as described ([46], [47]). Unless otherwise stated, the assay mixture typically contained 5 μM FIH, 500 μM substrate, 500 μM 2OG, 1 mM L-ascorbate, and 50 μM Fe(NH4)2(SO4)2 or 4 μM PHD2, 100 μM substrate, 300 μM 2OG, 4 mM L-ascorbate, and 50 μM Fe(NH4)2(SO4)2. For HIF-1α CODD19-mer, the background levels of methionine oxidation resulting from assay conditions were subtracted based on non-enzymatic controls ([48]).
The O2 dependence of FIH-catalyzed reactions was determined by conducting enzymatic assays in an “In vivo 500 Hypoxia Workstation” (Ruskinn) using buffers pre-equilibrated under different pO2 values for 24 h. The O2 dependence of PHD2-catalyzed reactions was determined by conducting enzymatic assays in sealed glass vials with variable N2/O2 contents ([42]). Reactions were stopped by spotting samples onto a matrix-assisted laser desorption/ionization-time of flight mass spectrometry (MALDI-TOF-MS) target plate and immediately mixing with α-cyano-4-hydroxycinnamic acid matrix. Hydroxylation levels were assessed by MALDI-TOF-MS as described ([46]).

The next assay has as its target T2, PHD2 (Homo sapiens, UniProt Q9GZT9).
T2 construct: The catalytic domain of PHD2 (residues 181–426) was purified as described; made in house
Nature of the assay: Rapid quench-flow, PHD2 pre-steady-state product and succinate formation. It counts as biochemical. Particulars: same mixture as stopped-flow, O2-saturated buffer 1:1, 5 °C, quenched with 1% CF3CO2H; for Rapid quench-flow kproduct: peptide hydroxylation by MALDI-TOF-MS, single exponential fit; for Rapid quench-flow ksuccinate: succinate by LC-MS. As for the experimental part:
Rapid quench-flow experiments were performed using the same conditions and preparation of the assay mixture as used in stopped-flow experiments. Rapid quench-flow equipment (TgK Scientific Ltd.) in an anaerobic glove box was used for the experiments. Samples were quenched with 1% CF3CO2H and analyzed using MALDI-TOF-MS (peptide hydroxylation) as described above or liquid chromatography-mass spectrometry (LC-MS, for succinate production). For LC-MS, chromatographic separation was performed at 50 °C using a Waters ACQUITY BEH Amide 1.7-μm, 2.1 × 100-mm column on a Waters ACQUITY^TM ultraperformance liquid chromatography system (Waters Corp., Milford, MA). The following eluents were used: mobile phase A: 10% H2O, 90% acetonitrile (v/v), 10 mM ammonium formate; mobile phase B: 50% H2O, 50% acetonitrile (v/v), 10 mM ammonium formate. The elution gradient was 0–7.0 min linear from 10 to 30% B, and 7.0–9.0 min at 10% B for re-equilibration of the column. A constant flow rate of 0.4 ml/min was used. Analytes were detected in negative ionization mode using single reaction monitoring on a Quattro triple quadrupole mass spectrometer (Waters) with a cone voltage of 15 V and a capillary voltage of 3.0 kV. The desolvation temperature was set to 250 °C, and the source temperature was set to 120 °C.
To investigate correlation of the spectroscopic observations with rates of product accumulation, equivalent reactions were analyzed by rapid quench-flow methodology. Anerobically prepared PHD2·Fe(II)·2OG·peptide substrate complexes were mixed with O2-saturated buffer in a 1:1 ratio; reactions were quenched at defined time points with 1% aqueous CF3CO2H. The level of peptide hydroxylation was assessed by MALDI-TOF-MS ([42]), and succinate accumulation was analyzed by LC-MS. To obtain rate constants for product accumulation, the results were fitted with a single exponential function (Fig. 5E and Table 3).

Where [2] appears, read: PHD2, 4 μM PHD2, peptide varied, 300 μM 2OG, read-out: Km^app(peptide).
The mark [3] stands for this setting: PHD2 with the named substrate, 4 μM PHD2, 2OG varied, read-out: Km^app(2OG).

Usually Km stands for the substrate concentration at which the rate is half of its maximum.

Where two headings read alike, the source gives them in different places.

T2 sequence (Q9GZT9 181-426): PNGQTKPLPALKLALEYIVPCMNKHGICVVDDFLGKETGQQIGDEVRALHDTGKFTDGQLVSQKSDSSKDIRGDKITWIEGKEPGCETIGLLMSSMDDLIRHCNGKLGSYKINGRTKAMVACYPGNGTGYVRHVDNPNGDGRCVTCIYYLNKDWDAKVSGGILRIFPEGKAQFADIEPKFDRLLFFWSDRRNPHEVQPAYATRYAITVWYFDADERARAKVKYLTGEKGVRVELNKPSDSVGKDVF
T1 sequence (Q9GZT9 181-426): as above

With “EELAQLAPTPGDAIISLDF [HIF-2α NODD, 19-mer fragment (398–416) of the HIF-2α N-terminal oxygen-dependent degradation domain, PHD2 substrate]”, in assay [1], the “kcat^app” value worked out at 0.013 ± 0.001 s⁻¹. For the same sequence, the Km in assay [1] (setting [2]) was determined as 50 ± 8 µM. Moreover, in assay [1] (setting [3]), the Km was 17 ± 5 µM. In addition, at PHD2, the Rapid quench-flow kproduct stood at 0.0199 ± 0.0032 s⁻¹ and the Rapid quench-flow ksuccinate came to 0.0270 ± 0.0060 s⁻¹.
Turning to “ELDLETLAPYIPMDGEDFQ [HIF-2α CODD, 19-mer fragment (523–541) of the HIF-2α C-terminal oxygen-dependent degradation domain, PHD2 substrate]”, the “kcat^app” value in assay [1] turned out to be 0.069 ± 0.006 s⁻¹. Further, the Km in assay [1] (setting [2]) stood at 34 ± 10 µM. Moreover, in assay [1] (setting [3]), the Michaelis constant (Km) was 9 ± 2 µM. Also, at PHD2, the Rapid quench-flow kproduct came to 0.0124 ± 0.0030 s⁻¹ and the Rapid quench-flow ksuccinate turned out to be 0.0120 ± 0.0070 s⁻¹.
